pIC50: −log10 of the molar value. Converted amounts (≈) assume the structure as drawn. “And” between values parts separate entries of the source, which are not always exact repeats. Equal values may be shown once. Read-outs that look alike come from different tables or passages of the source.
Legend:
[1] = biological target: Stat5:Stat5 DNA-binding activity; test: EMSA of Stat5:Stat5 DNA-binding activity in nuclear extracts of EGF-stimulated NIH3T3/hEGFR; assay type: biochemical, mouse; conditions: Fig. 1C, MGFe probe, 30 min
Description: These studies were carried out as previously described using the ^32P-labeled oligonucleotide probes, hSIE (high affinity sis-inducible element from the c-fos gene, m67 variant, 5^′-[…]) that binds Stat1 and Stat3 [11, 12] and the mammary gland factor element (MGFe) from the bovine β–casein gene promoter (sense strand, 5^′-[…]) that binds Stat5 and Stat1 [11, 12]. Details are presented in Supplementary Information, “Methods”. […]
min, prior to incubation with the radiolabeled probe for 30 min at 30 °C and subjecting to EMSA analysis.
In another case, the nuclear extract was pre-incubated with the radiolabeled probe for 30 min at 30 °C prior to incubation with increasing concentration of H182 at room temperature for 30 min and subjecting to EMSA analysis. Bands corresponding to Stats DNA- binding activities were scanned and quantified using ImageJ and plotted as a percentage of control (vehicle) against the concentration of the inhibitor, from which the IC50 values were derived .

Solubility = assay type: physicochemical
Description: Solubility, human (HLM) and mouse liver microsomal (MLM), and plasma stability studies were performed by Eurofins Cerep Panlabs and Eurofin Discovery Services (www.eurofins.com/PharmaDiscovery), while protein binding studies were performed by Sanford Burnham Prebys Chemical Biology & Drug Discovery Core using standard protocols.

HCC1937 cells = test: CyQuant viable cell number assay, HCC1937; assay type: cell-based, human; conditions: read-out: IC50 viable cell numbers, HCC1937
Description: (§1) CyQuant assay was performed to evaluate compounds as previously reported. Details are presented in Supplementary Information, “Methods”. […]
(§2) 1.2.6. Cell viability assays
(§3) CyQuant assay was performed to evaluate compounds as previously reported [1 -3] . Briefly, cells (5 x 10^3 per well, 100 µl) in culture in 96-well plates were treated once with 0 -10 µM concentrations of H120, H105, […]
(§4) concentration of H182 for 6 h and then treated with 0- 100 nM docetaxel or 0-20 µM cisplatin for a total of 72 h. Viable cell numbers were assessed by a CyQuant cell proliferation kit according to the manufacturer’s instructions (Thermo/Life Technologies Corp, Carlsbad, CA). Viable cell numbers were normalized to that of DMSO (control)-treated samples. […]

[2] = tested on: normal human mesothelial cells; test: CyQuant viable cell number assay, normal mesothelial cells; assay type: cell-based; conditions: 72 h, read-out: IC50 viable cell numbers, normal human mesothelial cells
Description: as §1, §2, §3, §4

MDA-MB-468 cells = test: CyQuant viable cell number assay, MDA-MB-468; assay type: cell-based, human; conditions: read-out: IC50 viable cell numbers, MDA-MB-468
Description: as §1, §2, §3, §4

MDA-MB-231 cells = test: CyQuant viable cell number assay, MDA-MB-231; assay type: cell-based, human; conditions: Homo sapiens, MDA-MB-231, read-out: IC50 viable cell numbers, MDA-MB-231; CyQuant, 72 h
Description: as §1, §2, §3, §4

pY705Stat3 = biological target: T1, pY705Stat3 (Homo sapiens, UniProt P40763); test: Western blotting for pY705Stat3 in treated breast cancer cells; assay type: cell-based; conditions: for Effect on constitutive Stat3 Tyr phosphorylation (pYStat3) in cells: MDA-MB-468 and MDA-MB-231, 0–5 μM, 1 or 2 h
T1 construct: endogenous in cells
Description: These studies were performed as previously described. Details are presented in Supplementary Information, “Methods”.
Nuclear extracts and whole-cell lysates were prepared, and samples of equal total protein were subjected to Stat3 DNA-binding assay/EMSA analysis using the hSIE probe, or to SDS/PAGE and Western blotting analysis for pY705Stat3, Stat3, or GAPDH [11, 12]. […] Depending on the concentration (1, 3, or 5 μM), the inhibitory effects of the azetidine compounds were observed relatively early, at 30–60 min, on both Stat3 DNA-binding activity (Fig. 4C) and Tyr phosphorylation (Fig. 4D, pY705Stat3).
During confluence of cultured cells, the cell-to-cell adhesion and cadherin engagement trigger increased Tyr705Stat3 phosphorylation in a variety of cell lines. To investigate the impact of cell-to-cell adhesion and cadherin engagement, parallel studies were conducted in which cells in culture were untreated or treated with 1 or 2 μM H182 for 0.5–48 h, and whole-cell lysates prepared and immunoprobed for pTyr705Stat3. […] After 48-h incubation, the cell confluency of the DMSO-treated samples reached to around 60% for MDA-MB-468 cells and 80% for MDA-MB-231 cells. […] In the untreated cells, Stat3 (red punctate) staining was predominantly localized in the nucleus of the tumor cells, with weak presence in the cytoplasm (Fig. 4F, 0, Stat3, red merged with blue DAPI nuclear staining). […] Total Stat3 protein levels in all of these studies were unchanged, and GAPDH, tubulin or β-actin levels show equal protein loading. The percent changes induced by H182 treatment on Stat3 DNA-binding activity and phosphorylation in the treated cells are shown.
These studies were performed as previously described [1 -3] . Briefly, snap-frozen tumor tissues or cultured cells treated or not were harvested and whole-cell or tissue lysates were prepared in radioimmunoprecipitation assay (RIPA) buffer. Samples of equal total protein were subjected to SDS - PAGE and immunoblotting analysis. Primary antibodies used were anti- Stat3, pY705-Stat3, pS727Stat3, […]
Akt, pT202/Y204Erk1/2 (p44/42), Erk1/2, PARP , caspase 3, c-Myc, survivin, VEGF, β-actin, α/β-tubulin, and GAPDH. For the studies of the effects of cell density and confluence on pY705Stat3, cells were seeded […] in culture dishes. The next day, cells were untreated (DMSO control, […]
0.1%) or treated at the same time with 1 or 2 µM H182, allowed to incubate for the indicated time and then harvested for whole-cell lysate preparation and SDS -PAGE / immunoblotting analy sis. After 48-h incubation, the cell confluency of the DMSO-treated samples reached to around 60% for MDA-MB -468 cells and 80% for MDA- MB-231 cells. […]

[3] = tested on: Stat3-independent pLucSRE luciferase reporter; test: Stat3-independent luciferase reporter pLucSRE in NIH3T3/v-Src; assay type: cell-based, mouse; conditions: 1–3 μM H182 for 1 h
CYP3A = CYP3A (Homo sapiens, UniProt P08684); test: CYP inhibition, CYP3A; assay type: in vitro ADME
Description: The in vivo activity of a compound is influenced by its overall bioavailability, which is also driven by parameters, such as solubility, permeability, and metabolism. […] These values are all above the industry cut-off of 60 μg/ml. […] It has CLint in human hepatocytes of 16 μL/min/10^6 cells, which falls into moderate stability range [43].

[4] = aqueous buffer, PBS pH 7.4, read-out: Solubility PBS pH 7.4

T1 sequence (P40763 whole entry): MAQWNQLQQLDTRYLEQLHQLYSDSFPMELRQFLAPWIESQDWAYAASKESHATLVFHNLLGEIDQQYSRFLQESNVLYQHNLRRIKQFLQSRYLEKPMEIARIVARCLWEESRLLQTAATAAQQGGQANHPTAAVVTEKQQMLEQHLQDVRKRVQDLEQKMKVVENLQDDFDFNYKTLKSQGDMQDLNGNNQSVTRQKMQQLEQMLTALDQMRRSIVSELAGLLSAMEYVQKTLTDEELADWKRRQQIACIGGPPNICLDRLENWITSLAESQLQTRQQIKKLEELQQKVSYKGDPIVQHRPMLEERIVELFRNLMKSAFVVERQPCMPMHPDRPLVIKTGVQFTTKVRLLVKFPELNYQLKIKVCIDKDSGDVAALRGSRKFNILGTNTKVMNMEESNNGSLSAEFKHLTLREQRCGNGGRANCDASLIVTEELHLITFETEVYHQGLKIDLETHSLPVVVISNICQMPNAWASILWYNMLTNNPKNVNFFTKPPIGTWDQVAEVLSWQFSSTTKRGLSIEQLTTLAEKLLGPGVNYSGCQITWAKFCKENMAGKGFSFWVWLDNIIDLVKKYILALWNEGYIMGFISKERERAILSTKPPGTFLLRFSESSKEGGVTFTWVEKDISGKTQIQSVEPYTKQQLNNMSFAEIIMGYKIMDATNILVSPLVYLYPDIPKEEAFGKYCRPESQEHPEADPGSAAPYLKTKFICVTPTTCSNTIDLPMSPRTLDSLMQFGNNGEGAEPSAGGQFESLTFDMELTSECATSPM
Sequence of CYP3A (P08684 2-503): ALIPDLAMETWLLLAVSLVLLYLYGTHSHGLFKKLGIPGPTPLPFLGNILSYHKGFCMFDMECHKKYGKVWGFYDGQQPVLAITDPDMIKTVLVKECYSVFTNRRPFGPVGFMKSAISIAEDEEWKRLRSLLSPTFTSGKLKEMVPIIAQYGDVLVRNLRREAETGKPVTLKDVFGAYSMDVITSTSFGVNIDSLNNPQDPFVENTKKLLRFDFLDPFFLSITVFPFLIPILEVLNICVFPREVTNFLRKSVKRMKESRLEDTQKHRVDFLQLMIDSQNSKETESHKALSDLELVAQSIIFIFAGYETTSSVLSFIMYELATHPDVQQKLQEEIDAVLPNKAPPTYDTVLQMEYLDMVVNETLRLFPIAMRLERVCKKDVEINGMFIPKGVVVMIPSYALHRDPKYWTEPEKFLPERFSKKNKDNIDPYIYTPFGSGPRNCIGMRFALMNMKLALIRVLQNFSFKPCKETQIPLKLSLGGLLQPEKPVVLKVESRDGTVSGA

| Solubility SGF (Solubility; simulated gastric fluid) [mg/mL] | Solubility SIF (Solubility; simulated intestinal fluid) [mg/mL] | Structure (SMILES) | pIC50 [1] | solubility (Solubility; [4]) [mg/mL] | pIC50 (HCC1937 cells; 72 h) | pIC50 (HCC1937 cells; Homo sapiens, HCC1937, 72 h) | pIC50 [2] | pIC50 (MDA-MB-468 cells; Homo sapiens, MDA-MB-468, 72 h) | pIC50 (MDA-MB-231 cells) | Effect on constitutive Stat3 Tyr phosphorylation (pYStat3) in cells (pY705Stat3) | Effect on pLucSRE luciferase reporter expression [3] | pIC50 (CYP3A; probe midazolam, midazolam site, read-out: CYP Inhibition CYP3A (Midazolam) IC50) | pIC50 (CYP3A; probe testosterone, testosterone site, read-out: CYP Inhibition CYP3A (Testosterone) IC50) | solubility (Solubility; simulated gastric fluid, read-out: Solubility SGF) | solubility (Solubility; simulated intestinal fluid, fassgf or other biorelevant, read-out: Solubility SIF) [mg/mL] | pIC50 (MDA-MB-468 cells; 72 h) | Duration of inhibition of Stat3 activation (pY705Stat3) (pY705Stat3; 3 μM H182) | Effect on EGF-induced pY705Stat3 (pY705Stat3; MDA-MB-468 cells, 1–3 μM H182) |
| --- | --- | --- | --- | --- | --- | --- | --- | --- | --- | --- | --- | --- | --- | --- | --- | --- | --- | --- |
| 0.104 (≈ 161 µM) | 0.123 (≈ 190 µM) | O=C([C@H]1CCN1S(=O)(=O)c1c(F)c(F)c(F)c(F)c1F)N(Cc1ccc(C2CCCCC2)cn1)c1ccc2c(=O)[nH]cnc2c1 [Compound H172] | 4.70 | 0.0063 (≈ 9.73 µM) | 5.32 | 5.37 to 5.44 | 5.04 to 5.31 | 5.82 | 5.48 | dose-dependent inhibition | – | – | – | – | – | – | – | – |
| – | – | O=C([C@H]1CCN1S(=O)(=O)c1c(F)c(F)c(F)c(F)c1F)N(Cc1ccc(C2CCCCC2)cn1)c1ccc2c(=O)[nH]ncc2c1 [Compound H182] | 4.72 | 0.003 (≈ 4.63 µM) | 5.52 | 5.37 to 5.44 | 5.04 to 5.31 | 6.00 | 6.00 | dose-dependent inhibition | no changes | 5.16 | 5.92 | 0.13 mg/mL and 0.132 mg/mL | 0.128 (≈ 198 µM) | 5.96 | sustained inhibition of Stat3 activation for up to 48 h | inhibited EGF-induced pY705Stat3 in MDA-MB-468 cells in a dose-dependent manner |

Reference: publication PMC9867837 (Cancer letters, 2022)
